In the NIST ThermoML archive (doi:10.1021/je200508x):

Settings: 101.33 kPa, Crystal, Vacuum adiabatic calorimetry

C=C(C)C(=O)[O][Sb]([O]C(=O)C(=C)C)([c]1ccccc1)([c]1ccccc1)[c]1ccccc1 [triphenyl-.lambda.5-stibanediyl bis(2-methylacrylate)]
Settings	molar entropy [J/K/mol]
5 K	0.671
10 K	4.78
15 K	12.1
20 K	21.52
25 K	32.28
30 K	44.02
35 K	56.34
40 K	69.14
45 K	82.14
50 K	95.25
60 K	121.6
70 K	147.7
80 K	173.5
90 K	198.9
100 K	223.7
110 K	247.9
120 K	271.6
130 K	294.8
140 K	317.4
150 K	339.7
160 K	362.6
170 K	384.6
180 K	405.6
190 K	426.3
200 K	446.6
210 K	466.8
220 K	486.7
230 K	506.4
240 K	526
250 K	545.3
260 K	564.5
270 K	583.5
280 K	602.3
290 K	621.1
298.15 K	636.3
300 K	639.7
310 K	658.3
320 K	676.9
330 K	695
340 K	714
350 K	732
360 K	750
370 K	768
380 K	786
390 K	804
400 K	821
